Laboratory results as given in publication PMC10689823, “Discovery of a Drug-like, Natural Product-Inspired DCAF11 Ligand Chemotype” (Nature Communications, 2023).
Several values for one entry are separate records, joined by “and”; a condition that tells them apart may be missing. Identical values can stand only once.

Assays:
BRD2 = assay: In-Cell Western for BRD2 levels in Hep G2 cells; assay type: cell-based
Outline: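 Hep G2 cells were treated with compound for the indicated time and concentration. After fixation and permeabilisation, BRD2 was immunostained and read by near-infrared imaging. BRD2 signal was normalised to vinculin.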

BRD3 = biological target: T1, BRD3 (Homo sapiens, UniProt Q15059); assay: BRD3 levels by Western blot in Jurkat cells; assay type: cell-based; conditions: for degradation of BRD3: 3 µM, 6 h treatment
T1 construct: endogenous in cells; host or cells: Jurkat
Procedure: Cells were washed with PBS and lysed in lysis buffer (50 mM Tris-HCl, pH 7.4, 150 mM NaCl, 1% Triton X-100, 1% sodium deoxycholate, 0.1% SDS) with complete protease inhibitor cocktail (Roche, 11836170001) for 30 min on ice. For Ramos cells, cell pellets were lysed in lysis buffer (50 mM Tris-HCl, pH 8, 150 mM NaCl, 1% NP-40, 0.5% sodium deoxycholate) with complete protease inhibitor cocktail. After centrifugation at 16,000 x g, the supernatant was transferred into a new tube and the protein concentration was determined by DC protein assay (BIO-RAD, 5000116). Proteins were separated by SDS-PAGE and transferred to a PVDF membrane (Thermo scientific, 0.45 μm, 88518). For PDEδ, BRD2, GAPDH, BRD4, Vinculin and BTK, the membranes were blocked with Intercept® Blocking Buffer (LI-COR Biosciences, 927-70001) at room temperature for 1 h. The primary antibodies for these proteins were diluted with Intercept® Blocking Buffer (1:500 for PDEδ, 1:3000 for Vinculin, and 1:1000 for other proteins) and incubated with the membranes overnight at 4 °C. Membranes were washed with PBS + 0.1% Tween 20 (PBS-T) five times and incubated with secondary antibodies conjugated to IRDye® Infrared Fluorescent Dyes (1:5000, LI-COR Biosciences) at room temperature for 1 h with protection from light. After washing the membrane, signals were visualized using the ChemiDoc MP Imaging System (BIO-RAD Laboratories). For detection of LC3B, BRD3, BLK, DCAF11, DDB1 RBX1, FIP200, V5- and FLAG-Tag the membranes were blocked with 5% milk in PBS-T at room temperature for 1 h. The primary antibodies for these proteins were diluted in 5% milk in PBS-T buffer (1:200 for BRD3, 1:1000 for other proteins) and incubated with the membranes overnight at 4 °C. Membranes were washed with PBS-T five times and incubated with HRP secondary antibodies (1:1500) at room temperature for 1 h. After washing the membrane, protein detection was performed using Western blotting detection reagent (Thermo Scientific, 34095) and the ChemiDoc MP Imaging System (BIO-RAD). Relative band intensities were quantified using Image Lab (BIO-RAD).

T1 sequence (Q15059 whole entry): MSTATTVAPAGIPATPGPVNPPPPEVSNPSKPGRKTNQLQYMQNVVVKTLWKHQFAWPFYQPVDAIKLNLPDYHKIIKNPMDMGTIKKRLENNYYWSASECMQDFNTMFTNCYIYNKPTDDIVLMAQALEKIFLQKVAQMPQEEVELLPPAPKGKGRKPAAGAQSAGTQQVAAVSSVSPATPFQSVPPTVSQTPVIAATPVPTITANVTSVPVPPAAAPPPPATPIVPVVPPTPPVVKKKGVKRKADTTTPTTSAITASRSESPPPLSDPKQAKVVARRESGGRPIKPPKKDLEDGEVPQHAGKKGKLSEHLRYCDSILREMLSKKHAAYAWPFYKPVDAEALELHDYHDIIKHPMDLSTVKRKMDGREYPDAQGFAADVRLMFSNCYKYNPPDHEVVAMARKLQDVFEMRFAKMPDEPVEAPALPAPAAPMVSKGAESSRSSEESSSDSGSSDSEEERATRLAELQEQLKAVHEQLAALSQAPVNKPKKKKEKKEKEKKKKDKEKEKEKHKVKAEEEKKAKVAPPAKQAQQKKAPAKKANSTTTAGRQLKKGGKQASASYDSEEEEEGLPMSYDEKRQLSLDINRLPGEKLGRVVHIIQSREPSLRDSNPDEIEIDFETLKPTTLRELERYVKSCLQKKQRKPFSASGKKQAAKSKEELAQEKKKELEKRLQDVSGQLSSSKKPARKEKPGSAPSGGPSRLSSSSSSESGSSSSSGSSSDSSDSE

degradation of BRD3 (BRD3)	hook effect for BRD3 (BRD3; 6 h, at 10 µM)	SMILES	BRD2/Vinculin intensity (relative to control group) (BRD2; Hep G2 cells, pretreated with compound at 30 μM 1 h, then 9 (10 μM, 4 h), single repeats, Fig. 4h)	Value (Mean ± SD): Relative BRD2 levels remaining in Hep G2 cells after treatment with compounds followed by treatment with 9, with DMSO control for normalization (BRD2; qualitative ICW assay, pretreated at 30 μM 1 h, then 9 (10 μM, 4 h), Supplementary Table 1)	BRD2 depletion by In-Cell Western (BRD2; Hep G2 cells, 4 h)
–	–	O=C1Nc2ccc(Br)cc2C1=Cc1cc(Br)c(O)c(Br)c1 [Compound 2]	45.5673 and 52.7494 and 40.9253 and 42.2632 and 42.726	44.85 ± 4.23	–
potent degradation activity	strong hook effect	Cc1sc2c(c1C)C(c1ccc(Cl)cc1)=N[C@@H](CC(=O)NCCOCCOCCOCCOCCNC(=O)COc1c(Br)cc(/C=C3\C(=O)Nc4ccc(Br)cc43)cc1Br)c1nnc(C)n1-2 [Compound 9]	–	–	dose-dependent depletion of BRD2
potent degradation activity	–	Cc1sc2c(c1C)C(c1ccc(Cl)cc1)=NC(CC(=O)NCCOCCOCCOCCOc1c(Br)cc(C=C3C(=O)Nc4ccc(Br)cc43)cc1Br)c1nnc(C)n1-2 (stereo not drawn) [Compound 10]	–	–	–
